Measured values as given in patent US20230192686A1, “1H-PYRROLO[2,3-B]PYRIDINES AND PREPARATION AND USES THEREOF” (BioSplice Therapeutics, Inc., priority 2021, published 2023).

Molecular target: recombinant DYRK1A kinase (Homo sapiens, UniProt Q13627)
Experiment: DYRK1A kinase assay (Ser/Thr 18 peptide Z-lyte FRET)
Assay type: biochemical
Details: DYRK1A kinase activity; 15 μM ATP, 4 μM Ser/Thr peptide 18, one hour at room temperature
Outline: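 Recombinant DYRK1A at 0.25 μg/mL was incubated 1 h at room temperature with 15 μM ATP, 4 μM Ser/Thr 18 peptide and compound, in duplicate, 11-point series from 10 μM. Phosphorylation was read by Z-lyte FRET after 1 h protease development, as the coumarin/fluorescein emission ratio converted to % phosphorylation. IC50 by non-linear regression.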

Row | SMILES | EC50 [nM]
1 | CN1CCN(c2cc(-c3c[nH]c4nc(NC(=O)c5ccncc5)ccc34)ccn2)CC1 [Compound 1897, N-(3-(2-(4-Methylpiperazin-1-yl)pyridin-4-yl)-1H-pyrrolo[2,3-b]pyridin-6-yl)isonicotinamide] | 51
2 | Cc1nc2c(F)cc(-c3c[nH]c4nc(-c5cnn(C)c5)ccc34)cc2n1C(C)C [Compound 1963, 4-Fluoro-1-isopropyl-2-methyl-6-(6-(1-methyl-1H-pyrazol-4-yl)-1H-pyrrolo[2,3-b]pyridin-3-yl)-1H-benzo[d]imidazole] | 45
3 | Cc1nc2ccc(-c3c[nH]c4ncccc34)nc2n1C(C)C [Compound 27, 3-Isopropyl-2-methyl-5-(1H-pyrrolo[2,3-b]pyridin-3-yl)-3H-imidazo [4,5-b]pyridine] | 2
4 | CN1CCn2ncc(-c3cnc4[nH]cc(-c5ccn6ncc(C(=O)Nc7cccnc7)c6c5)c4c3)c2C1 [Compound 1137, 5-(5-(5-Methyl-4,5,6,7-tetrahydropyrazolo[1,5-a]pyrazin-3-yl)-1H-pyrrolo[2,3-b]pyridin-3-yl)-N-(pyridin-3-yl)pyrazolo[1,5-a]pyridine-3-carboxamide] | 4
5 | O=C(NCC(F)F)c1cnc2ccc(-c3c[nH]c4nc(C5CC5)ccc34)cn12 [Compound 1499, 6-(6-Cyclopropyl-1H-pyrrolo[2,3-b]pyridin-3-yl)-N-(2,2-difluoroethyl) imidazo[1,2-a]pyridine-3-carboxamide] | 1
6 | CN1CCC(Oc2ncnc3ccc(-c4c[nH]c5nc(NC(=O)c6ccncc6)ccc45)cc23)CC1 [Compound 1913, N-(3-(4-((1-Methylpiperidin-4-yl)oxy)quinazolin-6-yl)-1H-pyrrolo [2,3-b]pyridin-6-yl)isonicotinamide] | 5
7 | O=C1CC2(CCNCC2)Oc2cc(-c3c[nH]c4ncccc34)ccc21 [Compound 83, 7-(1H-Pyrrolo[2,3-b]pyridin-3-yl)spiro[chromane-2,4′-piperidin]-4-one] | 29
8 | c1cnc2[nH]cc(-c3ccn4nccc4n3)c2c1 [Compound 65, 5-(1H-Pyrrolo[2,3-b]pyridin-3-yl)pyrazolo[1,5-a]pyrimidine] | 7
9 | Cc1nc2c(F)cc(-c3c[nH]c4nc(C(C)C)ccc34)cc2n1C(C)C [Compound 2045, 4-Fluoro-1-isopropyl-6-(6-isopropyl-1H-pyrrolo[2,3-b]pyridin-3-yl)-2-methyl-1H-benzo[d]imidazole] | 36
10 | Cc1nc2c(F)cc(-c3c[nH]c4ncc(NC(=O)c5ccnc(N6CCNCC6)c5)cc34)cc2n1C(C)C [Compound 829, N-(3-(4-Fluoro-1-isopropyl-2-methyl-1H-benzo[d]imidazol-6-yl)-1H-pyrrolo[2,3-b]pyridin-5-yl)-2-(piperazin-1-yl)isonicotinamide] | 2
11 | CN1CCN(c2ncnc3ccc(-c4c[nH]c5ncc(-c6cccnc6)cc45)cc23)CC1 [Compound 1198, 4-(4-Methylpiperazin-1-yl)-6-(5-(pyridin-3-yl)-1H-pyrrolo[2,3-b]pyridin-3-yl)quinazoline] | 3
12 | CN1CCN(C2CCN(C(=O)c3cnn4ccc(-c5c[nH]c6ncccc56)cc34)CC2)CC1 [Compound 54, (5-(1H-Pyrrolo[2,3-b]pyridin-3-yl)pyrazolo[1,5-a]pyridin-3-yl)(4-(4-methylpiperazin-1-yl)piperidin-1-yl)methanone] | 18
13 | Cc1nc2c(F)cc(-c3c[nH]c4ncc(C(=O)Nc5cnn(C6CCN(C)CC6)c5)cc34)cc2n1C(C)C [Compound 703, 3-(4-Fluoro-1-isopropyl-2-methyl-1H-benzo[d]imidazol-6-yl)-N-(1-(1-methylpiperidin-4-yl)-1H-pyrazol-4-yl)-1H-pyrrolo[2,3-b]pyridine-5-carboxamide] | 3
14 | CN1CCC(C(=O)Nc2ccc3c(-c4ccc5ncccc5c4)c[nH]c3n2)CC1 [Compound 1866, 1-Methyl-N-(3-(quinolin-6-yl)-1H-pyrrolo[2,3-b]pyridin-6-yl) piperidine-4-carboxamide] | 1
15 | c1cnc2[nH]cc(-c3ccc4ncnc(N5CCNC6(CCCC6)C5)c4c3)c2c1 [Compound 98, 9-(6-(1H-Pyrrolo[2,3-b]pyridin-3-yl)quinazolin-4-yl)-6,9-diazaspiro [4.5]decane] | 2
16 | Cc1nc2c(F)cc(-c3c[nH]c4ncc(C(=O)N5CC6CCC(C5)N6C)cc34)cc2n1C(C)C [Compound 2044, (3-(4-Fluoro-1-isopropyl-2-methyl-1H-benzo[d]imidazol-6-yl)-1H-pyrrolo[2,3-b]pyridin-5-yl)(8-methyl-3,8-diazabicyclo[3.2.1]octan-3-yl)methanone] | 3
17 | CN1CC2(C1)CN(C(=O)c1cnn3ccc(-c4c[nH]c5ncccc45)cc13)C2 [Compound 62, (5-(1H-Pyrrolo[2,3-b]pyridin-3-yl)pyrazolo[1,5-a]pyridin-3-yl)(6-methyl-2,6-diazaspiro[3.3]heptan-2-yl)methanone] | 5
18 | CN1CCN(c2cccc(Nc3ccc4c(-c5ccn6ncc(-c7cnn(C)c7)c6c5)c[nH]c4n3)c2)CC1 [Compound 1930, 3-(3-(1-Methyl-1H-pyrazol-4-yl)pyrazolo[1,5-a]pyridin-5-yl)-N-(3-(4-methylpiperazin-1-yl)phenyl)-1H-pyrrolo[2,3-b]pyridin-6-amine] | 4

Row | SMILES | EC50 [nM]
19 | CN1CCN(C(=O)c2cnn3ccc(-c4c[nH]c5ncccc45)cc23)CC1 [Compound 55, (5-(1H-Pyrrolo[2,3-b]pyridin-3-yl)pyrazolo[1,5-a]pyridin-3-yl)(4-methylpiperazin-1-yl)methanone] | 4
20 | Cc1nc2c(F)cc(-c3c[nH]c4ncc(-c5ccc(N6CCN(C)CC6)nc5)cc34)cc2n1C(C)C [Compound 1333, 4-Fluoro-1-isopropyl-2-methyl-6-(5-(6-(4-methylpiperazin-1-yl)pyridin-3-yl)-1H-pyrrolo[2,3-b]pyridin-3-yl)-1H-benzo[d]imidazole] | 1
21 | Cc1nc2c(F)cc(-c3c[nH]c4ncc(C(=O)N5CCN(C)CC5)cc34)cc2n1C(C)C [Compound 493, (3-(4-Fluoro-1-isopropyl-2-methyl-1H-benzo[d]imidazol-6-yl)-1H-pyrrolo[2,3-b]pyridin-5-yl)(4-methylpiperazin-1-yl)methanone] | 7
22 | c1cnc2[nH]cc(-c3ccn4ncnc4c3)c2c1 [Compound 30, 7-(1H-Pyrrolo[2,3-b]pyridin-3-yl)-[1,2,4]triazolo[1,5-a]pyridine] | 13
23 | CN1CCN(c2ncnc3ccc(-c4c[nH]c5nc(C6CC6)ccc45)cc23)CC1 [Compound 1534, 6-(6-Cyclopropyl-1H-pyrrolo[2,3-b]pyridin-3-yl)-4-(4-methylpiperazin-1-yl)quinazoline] | 12
24 | CN1CCC(Nc2ncnc3ccc(-c4c[nH]c5ncccc45)cc23)CC1 [Compound 100, N-(1-Methylpiperidin-4-yl)-6-(1H-pyrrolo[2,3-b]pyridin-3-yl) quinazolin-4-amine] | 6
25 | CN1CC(F)(CNC(=O)c2cnn3ccc(-c4c[nH]c5ncccc45)cc23)C1 [Compound 42, N-((3-Fluoro-1-methylazetidin-3-yl)methyl)-5-(1H-pyrrolo[2,3-b]pyridin-3-yl)pyrazolo[1,5-a]pyridine-3-carboxamide] | 2
26 | Cn1cc2cc(-c3c[nH]c4nc(C5CC5)ccc34)ccc2n1 [Compound 1495, 5-(6-Cyclopropyl-1H-pyrrolo[2,3-b]pyridin-3-yl)-2-methyl-2H-indazole] | 105
27 | Cc1nc2c(F)cc(-c3c[nH]c4ncc(C(=O)NC5CCN(C)CC5)cc34)cc2n1C(C)C [Compound 451, 3-(4-Fluoro-1-isopropyl-2-methyl-1H-benzo[d]imidazol-6-yl)-N-(1-methylpiperidin-4-yl)-1H-pyrrolo[2,3-b]pyridine-5-carboxamide] | 4
28 | Cc1nc2c(F)cc(-c3c[nH]c4ncc(C(=O)Nc5cnn(C6CCNCC6)c5)cc34)cc2n1C(C)C [Compound 661, 3-(4-Fluoro-1-isopropyl-2-methyl-1H-benzo[d]imidazol-6-yl)-N-(1-(piperidin-4-yl)-1H-pyrazol-4-yl)-1H-pyrrolo[2,3-b]pyridine-5-carboxamide] | 2
29 | CN1CCC(C(=O)Nc2ccc3c(-c4ccc5nn(C)cc5c4)c[nH]c3n2)CC1 [Compound 1831, 1-Methyl-N-(3-(2-methyl-2H-indazol-5-yl)-1H-pyrrolo[2,3-b]pyridin-6-yl)piperidine-4-carboxamide] | 1
30 | c1cnc2[nH]cc(-c3ccc4nccnc4c3)c2c1 [Compound 90, 6-(1H-Pyrrolo[2,3-b]pyridin-3-yl)quinoxaline] | 3
31 | O=C1NCCOc2cc(-c3c[nH]c4ncccc34)ccc21 [Compound 84, 8-(1H-Pyrrolo[2,3-b]pyridin-3-yl)-3,4-dihydrobenzo[f][1,4]oxazepin-5(2H)-one] | 3
32 | CN1CCC(NC(=O)c2ncnc3ccc(-c4c[nH]c5ncccc45)cc23)CC1 [Compound 106, N-(1-Methylpiperidin-4-yl)-6-(1H-pyrrolo[2,3-b]pyridin-3-yl) quinazoline-4-carboxamide] | 3
33 | Cc1cn2cc(-c3c[nH]c4ncccc34)cc(F)c2n1 [Compound 13, 8-Fluoro-2-methyl-6-(1H-pyrrolo[2,3-b]pyridin-3-yl)imidazo[1,2-a]pyridine] | 21
34 | CN1CCOc2cc(-c3c[nH]c4ncccc34)ccc2C1=O [Compound 85, 4-Methyl-8-(1H-pyrrolo[2,3-b]pyridin-3-yl)-3,4-dihydrobenzo[f] [1,4]oxazepin-5(2H)-one] | 25
35 | O=C1CC2(CCNCC2)Oc2cc(-c3c[nH]c4ncc(Cl)cc34)ccc21 [Compound 226, 7-(5-Chloro-1H-pyrrolo[2,3-b]pyridin-3-yl)spiro[chromane-2,4′-piperidin]-4-one] | 36
36 | c1cnc2[nH]cc(-c3ccc4nc5n(c4n3)CCC5)c2c1 [Compound 28, 2-(1H-Pyrrolo[2,3-b]pyridin-3-yl)-7,8-dihydro-6H-pyrrolo [2′,1′:2,3]imidazo[4,5-b]pyridine] | 19
